Measured values reported in US10981932B2, “Macrocyclic indole derivatives” (Bayer Aktiengesellschaft, priority 2016, dated 2021).
Like-named read-outs stand apart in the source and are kept apart here.

Tests used:
MCL-1 = MCL-1 (Homo sapiens, UniProt Q07820); assay: Protein-protein interaction assay MCL-1/Noxa BH3 peptide (MCL-1 assay), TR-FRET; type: binding; conditions: MBP-MCL-1 / Noxa BH3-derived peptide, median
How it was run: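 MBP-MCL-1 (1 nM final) was preincubated 10 min at 22 °C with compounds (11 concentrations, 0.1 nM–20 μM, duplicates) in Tris pH 7 buffer with NaCl, KF, Tween-20, DTT and BGG. After 1 h at 22 °C in the dark plus overnight at 4 °C, anti-MBP Eu-cryptate/streptavidin-XL665 TR-FRET was read; IC50 came from a 4-parameter fit.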

SUDHL5 [1] = assay: Induction of caspase-3/7 activity (Caspase-Glo 3/7), SUDHL5; type: cell-based; conditions: caspase-3/7 induction, SUDHL5 cells, 3 h treatment, median
How it was run: (§1)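 Caspase-Glo 3/7 luminescence measured after 3 h compound exposure at 37 °C in SUDHL10 and SUDHL5 cells. EC50 values come from background-corrected signals, with curve bottom set to 1 and plateau set to maximal induction by the reference compound.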

SUDHL10 [2] = assay: Induction of caspase-3/7 activity (Caspase-Glo 3/7), SUDHL10; type: cell-based; conditions: caspase-3/7 induction, SUDHL10 cells, 3 h treatment, median
How it was run: as §1

A2780 = assay: Anti-proliferative effect (CellTiter-Glo, 72 h), A2780; type: cell-based; conditions: A2780 cells, median, read-out: IC50 antiproliferation assay A2780 [M] (median)
How it was run: (§2)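 Anti-proliferative activity is derived from ATP-based luminescence (CellTiter-Glo) in cells exposed to compound for 72 h at 37 °C, set against a time zero plate read at seeding.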

MV-4-11 = assay: Anti-proliferative effect (CellTiter-Glo, 72 h), MV-4-11; type: cell-based; conditions: MV-4-11 cells, median, read-out: IC50 antiproliferation assay MV-4-11 [M] (median)
Protocol: Assessment of the Anti-Proliferative Effect of Compounds in Different Cell Lines
The impact of compounds on the proliferation of different cell lines was assessed using the CellTiter-Glo® Luminescent Cell Viability reagent from Promega (G7573). Of note, SUDHL10 and SUDHL5 (DLBCL), NCI-H929 (Multiple Myeloma), A2780 (ovarian carcinoma) as well as MV-4-11(AML) cells are sensitive to MCL-1 inhibition.
In parallel, cells were plated in a reference (day 0) plate for time zero determination.
Rim wells were excluded. The cells were incubated for 72 h hours in a humidified incubator at 37° C. The day 0 plate was measured by adding 30 μl/well of CTG solution (CellTiter-Glo® Luminescent Cell Viability reagent, Promega G7573) to time zero wells in the reference plate followed by a 10 minutes incubation and luminescence reading at 0.1 ms, using the PHERAstar FS microplate reader (BMG Labtech).
After 72 h incubation, the treated plates were measured in the same way as the day 0 plate mentioned above.

SUDHL5 [3] = assay: Induction of cytotoxicity (CellTiter-Glo, 5 h), SUDHL5
SUDHL10 [4] = assay: Induction of cytotoxicity (CellTiter-Glo, 5 h), SUDHL10
SUDHL5 [5] = assay: Anti-proliferative effect (CellTiter-Glo, 72 h), SUDHL5; type: cell-based; conditions: SUDHL5 cells, antiproliferation, 72 h incubation, median, read-out: Antiproli SUDHL5 [M] (median)
How it was run: as §2

SUDHL10 [6] = assay: Anti-proliferative effect (CellTiter-Glo, 72 h), SUDHL10; type: cell-based; conditions: SUDHL10 cells, antiproliferation, 72 h incubation, median, read-out: Antiproli SUDHL10 [M] (median)
How it was run: as §2

OPM2 = assay: Anti-proliferative effect (CellTiter-Glo, 72 h), OPM2; type: cell-based; conditions: OPM2 cells, median, read-out: IC50 antiproliferation assay OPM2 [M] (median)
How it was run: as §2

[7] = Homo sapiens, SU-DHL-5, 5 h, read-out: Cytotox SUDHL5 [M] (median), SUDHL5 cells, cytotoxicity induction, CellTiter-Glo, 5 h, median
[8] = Homo sapiens, SU-DHL10, 5 h, read-out: Cytotox SUDHL10 [M] (median), SUDHL10 cells, cytotoxicity induction, CellTiter-Glo, 5 h, median
[9] = Homo sapiens, SU-DHL-5, 5 h, read-out: Cytotox SUDHL5 [M] (median), SUDHL5 cells, cytotoxicity induction, CellTiter-Glo, 5 h incubation, median
[10] = Homo sapiens, SU-DHL10, 5 h, read-out: Cytotox SUDHL10 [M] (median), SUDHL10 cells, cytotoxicity induction, CellTiter-Glo, 5 h incubation, median
[11] = read-out: Cytotox SUDHL5 [M] (median), SUDHL5 cells, cytotoxicity induction, CellTiter-Glo, 5 h, median
[12] = read-out: Cytotox SUDHL10 [M] (median), SUDHL10 cells, cytotoxicity induction, CellTiter-Glo, 5 h, median

Chain of MCL-1 (Q07820 whole entry): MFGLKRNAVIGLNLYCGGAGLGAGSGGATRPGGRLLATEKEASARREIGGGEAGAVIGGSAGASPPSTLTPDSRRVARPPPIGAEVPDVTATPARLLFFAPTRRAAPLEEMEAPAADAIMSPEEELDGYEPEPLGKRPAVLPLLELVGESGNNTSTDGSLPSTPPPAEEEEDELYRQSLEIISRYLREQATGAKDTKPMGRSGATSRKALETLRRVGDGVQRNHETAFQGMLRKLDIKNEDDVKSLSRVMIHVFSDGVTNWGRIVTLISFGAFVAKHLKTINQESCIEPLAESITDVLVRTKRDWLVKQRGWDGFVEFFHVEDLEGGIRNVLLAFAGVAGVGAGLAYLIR

Row | Compound | IC50 (MCL-1) [µM] | EC50 (SUDHL5 [1]; Homo sapiens, SU-DHL-5, 3 h) [µM] | EC50 (SUDHL10 [2]; Homo sapiens, SU-DHL10, 3 h) [µM] | IC50 (A2780; Homo sapiens, A2780, 72 h) [M] | IC50 (MV-4-11; Homo sapiens, MV4-11, 72 h) [M] | IC50 (A2780) [M] | IC50 (MV-4-11) [M] | EC50 (SUDHL5 [1]) [µM] | EC50 (SUDHL10 [2]) [µM] | also measured
1 | Cc1c2c(nn1C)COCCCCn1c(C(=O)O)c(CCCOc3cccc4cc(C(F)(F)F)ccc34)c3cccc-2c31 (single isomer, unassigned; enantiomer 1) [Example 311, 2,3-dimethyl-7-(3-{[6-(trifluoromethyl)naphthalen-1-yl]oxy}propyl)-2,10,11,12,13,15-hexahydropyrazolo[4′,3′:9,10][1,6]oxazacycloundecino[8,7,6-hi]indole-8-carboxylic Acid (Enantiomer 1)] | 0.543 | > 33 | > 33 | 1.11e-05 | 1.16e-05 | – | – | – | – | IC50 (SUDHL5 [3]; [7]): 2.12e-05 M; IC50 (SUDHL10 [4]; [8]): 1.49e-05 M
2 | CCc1nn(C)c2c1-c1cccc3c(CCCOc4cccc5cc(Cl)ccc45)c(C(=O)O)n(c13)CCCCOC2 (single isomer, unassigned; enantiomer 1) [Example 305, 7-{3-[(6-chloronaphthalen-1-yl)oxy]propyl}-3-ethyl-1-methyl-1,10,11,12,13,15-hexahydropyrazolo[4′,3′:9,10][1,6]oxazacycloundecino[8,7,6-hi]indole-8-carboxylic Acid (Enantiomer 1)] | 0.00536 | – | – | – | 1.36e-05 | > 3.3e-05 | – | – | – | –
3 | CCc1nn(C)c2c1-c1cccc3c(CCCOc4cccc5cc(C(F)(F)F)ccc45)c(C(=O)O)n(c13)CCCCOC2 (single isomer, unassigned; enantiomer 1) [Example 314, 3-ethyl-1-methyl-7-(3-{[6-(trifluoromethyl)naphthalen-1-yl]oxy}propyl)-1,10,11,12,13,15-hexahydropyrazolo[4′,3′:9,10][1,6]oxazacycloundecino[8,7,6-hi]indole-8-carboxylic Acid (Enantiomer 1)] | 0.0335 | > 33 | > 33 | 1.56e-05 | 1.35e-05 | – | – | – | – | IC50 (SUDHL5 [3]; [7]): 1.56e-05 M; IC50 (SUDHL10 [4]; [8]): 2.09e-05 M
4 | CCc1nn(C)c2c1-c1cccc3c(CCCOc4cccc5cc(Cl)ccc45)c(C(=O)O)n(c13)CCCCOC2 (single isomer, unassigned; enantiomer 2) [Example 306, 7-{3-[(6-chloronaphthalen-1-yl)oxypropyl}-3-ethyl-1-methyl-1,10,11,12,13,15-hexahydropyrazolo[4′,3′:9,10](1,6]oxazacycloundecino[8,7,6-hi]indole-8-carboxylic Acid (Enantiomer 2)] | 0.286 | – | – | – | – | 1.02e-05 | 1.5e-05 | – | – | –
5 | Cc1nn(C)c2c1-c1cccc3c(CCCOc4cccc5ccccc45)c(C(=O)O)n(c13)CCCCN(C)C2 (single isomer, unassigned) [Example 239, (−)-1,3,15-trimethyl-7-[3-(naphthalen-1-yloxy)propyl]-1,10,11,12,13,14,15,16-octahydropyrazolo[4′,3′:4,5][1,7]diazacyclododecino[3,2,1-hi]indole-8-carboxylic Acid] | 0.0927 | > 33 | > 33 | 2.27e-05 | 1.07e-05 | – | – | – | – | IC50 (SUDHL5 [3]; [9]): > 3.3e-05 M; IC50 (SUDHL10 [4]; [10]): 3.03e-05 M
6 | Cc1ccc2c(OCCCc3c(C(=O)O)n4c5c(cccc35)-c3c(nn(C)c3C)COCCCC4)cccc2c1 (single isomer, unassigned; enantiomer 2) [Example 309, 2,3-dimethyl-7-{3-[(6-methylnaphthalen-1-yl)oxy]propyl}-2,10,11,12,13,15-hexahydropyrazolo[4′3′:9,10][1,6]oxazacycloundecino[8,7,6-hi]indole-8-carboxylic Acid (Enantiomer 2)] | 0.133 | – | – | – | – | > 3.3e-05 | > 3.3e-05 | > 33 | > 33 | IC50 (SUDHL5 [3]; [11]): > 3.3e-05 M; IC50 (SUDHL10 [4]; [12]): > 3.3e-05 M
7 | CCc1nn(C)c2c1-c1cccc3c(CCCOc4cccc5cc(C(F)(F)F)ccc45)c(C(=O)O)n(c13)CCCCOC2 (single isomer, unassigned; enantiomer 2) [Example 315, 3-ethyl-1-methyl-7-(3-{[6-(trifluoromethyl)naphthalen-1-yl]oxy}propyl)-1,10,11,12,13,15-hexahydropyrazolo[4′,3′:9,10][1,6]oxazacycloundecino[8,7,6-hi]indole-8-carboxylic Acid (Enantiomer 2)] | 0.919 | – | – | – | – | 8.63e-06 | 1.16e-05 | > 33 | 20.1 | IC50 (SUDHL5 [3]; [11]): 1.48e-05 M; IC50 (SUDHL10 [4]; [12]): 1.58e-05 M
8 | Cc1c2c(nn1C)COCCCCn1c(C(=O)O)c(CCCOc3cccc4cc(C(F)(F)F)ccc34)c3cccc-2c31 (single isomer, unassigned; enantiomer 2) [Example 312, 2,3-dimethyl-7-(3-{[6-(trifluoromethyl)naphthalen-1-yl]oxy}propyl)-2,10,11,12,13,15-hexahydropyrazolo[4′,3′:9,10][1,6]oxazacycloundecino[8,7,6-hi]indole-8-carboxylic Acid (Enantiomer 2)] | 0.022 | – | – | – | – | 1.05e-05 | 1.28e-05 | – | – | –
9 | Cc1ccc2c(CCCOc3cccc4ccccc34)c(C(=O)O)n3c2c1-c1c(nn(C)c1C)COCCCC3 (racemic) [Example 075, (rac)-2,3,4-trimethyl-7-[3-(naphthalen-1-yloxy)propyl]-2,10,11,12,13,15-hexahydropyrazolo[4′,3′:9,10][1,6]oxazacycloundecino[8,7,6-hi]indole-8-carboxylic Acid] | 0.00171 | 3.25 | 6.36 | 1.97e-05 | – | – | – | – | – | IC50 (SUDHL5 [5]; Homo sapiens, SU-DHL-5, 72 h): 3.21e-06 M; IC50 (SUDHL10 [6]; Homo sapiens, SU-DHL10, 72 h): 2.63e-06 M; IC50 (OPM2; Homo sapiens, OPM-2, 72 h): 1.1e-05 M; IC50 (SUDHL5 [3]; [9]): 3.66e-06 M; IC50 (SUDHL10 [4]; [10]): 8.23e-06 M
10 | COC1(c2ccc(OCc3nn(C)c4c3-c3cccc5c(CCCOc6cccc7ccccc67)c(C(=O)O)n(c35)CCCCOC4)cc2)CCOCC1 (single isomer, unassigned) [Example 1-67, 3-{[4-(4-methoxytetrahydro-2H-pyran-4-yl)phenoxy]methyl}-1-methyl-7-[3-(naphthalen-1-yloxy)propyl]-1,10,11,12,13,15-hexahydropyrazolo[4′,3′:9,10][1,6]oxazacycloundecino[8,7,6-hi]indole-8-carboxylic Acid] | 0.34 | – | – | – | – | 6.25e-06 | – | 16.1 | 17.8 | IC50 (SUDHL5 [5]): 9.8e-06 M; IC50 (SUDHL10 [6]): 2.95e-06 M; IC50 (OPM2): 1.19e-05 M; IC50 (SUDHL5 [3]; read-out: Cytotox SUDHL5 [M] (median), SUDHL5 cells, cytotoxicity induction, CellTiter-Glo, 5 h incubation, median): 1.22e-05 M; IC50 (SUDHL10 [4]; read-out: Cytotox SUDHL10 [M] (median), SUDHL10 cells, cytotoxicity induction, CellTiter-Glo, 5 h incubation, median): 2.29e-05 M
